Tested on: Fibroblast
Assay: Incucyte cell viability with human fibroblast; further: filed as whole numbers so only -1 and 0 and 1 occur
Type: toxicity, cell-based
Settings: 10 µM, compound concentration 10 uM
[1] = 6 h, replicate number 1, timepoint 6 hours
[2] = 12 h, replicate number 1, timepoint 12 hours
[3] = 18 h, replicate number 1, timepoint 18 hours
[4] = 24 h, replicate number 1, timepoint 24 hours
[5] = 0 h, replicate number 1, timepoint 0 hours
[6] = 12 h, replicate number 2, timepoint 12 hours
[7] = 18 h, replicate number 2, timepoint 18 hours
[8] = 6 h, replicate number 2, timepoint 6 hours
[9] = 0 h, replicate number 2, timepoint 0 hours
[10] = 24 h, replicate number 2, timepoint 24 hours

Row | Structure (SMILES) | Growth Rate [1] | Growth Rate [2] | Growth Rate [3] | Growth Rate [4] | Growth Rate [5] | Growth Rate [6] | Growth Rate [7] | Growth Rate [8] | Growth Rate [9] | Growth Rate [10]
1 | C=CC(=O)Nc1cccc(Oc2nc(Nc3ccc(N4CCN(C)CC4)cc3OC)ncc2Cl)c1 | 0 | 0 | 0 | 0 | – | – | – | – | – | –
2 | Cc1cccc(CN2CCN(C(c3ccccc3)c3ccc(Cl)cc3)CC2)c1.Cl.Cl (centres undefined) | – | 1 | 1 | 0 | 0 | 0 | 0 | – | – | –
3 | C=CC(=O)Nc1cccc(Sc2nc(Nc3ccc(N4CCN(C)CC4)cc3)ncc2Cl)c1 | 0 | 0 | 0 | 0 | – | – | – | – | – | –
4 | CC(C)OC(=O)N1CCC(Oc2ncnc3c2cnn3-c2ccc(S(C)(=O)=O)cc2F)CC1 | 1 | 1 | 1 | 0 | 0 | 0 | 0 | 0 | – | –
5 | COc1cc(Nc2nccc(-c3cnn4nc(OC)ccc34)n2)cc(C(F)(F)F)c1 | 0 | 0 | 0 | 0 | – | – | – | – | – | –
6 | O=c1cc(N2CCOCC2)oc2c(-c3cccc4c3sc3ccccc34)cccc12 | 0 | 0 | 0 | 0 | – | – | 1 | – | 0 | 1
7 | O=C(c1cc2c(cc1F)OC(c1ccc(F)cc1)(c1ccc(Cl)cc1Cl)O2)N1CCOCC1 (centres undefined) | – | – | 1 | 1 | 0 | 0 | 0 | – | – | 0
8 | CC(C)NC(=O)N1CC[C@H](NC2=Nc3cc(F)ccc3N(CC(F)F)c3ccc(Cl)cc32)C1 | 0 | 0 | 0 | 0 | – | – | – | – | – | –
9 | CC(C)Oc1ccccc1C(=O)Nc1ccccc1C(=O)Nc1cccc(S(=O)(=O)C(F)(F)F)c1 | – | – | – | 1 | 0 | – | – | – | – | –
10 | CC1=C(C(=O)Nc2cc3cn[nH]c3cc2F)C(c2ccc(C(F)(F)F)cc2)CC(=O)N1 (centres undefined) | – | – | – | 1 | 0 | – | – | – | – | –
11 | Cc1nc(N2CC[C@H](O)C2)ncc1-c1cc(C(F)(F)F)cc2[nH]ncc12 | 1 | 0 | 0 | 0 | 0 | – | – | 0 | – | –
12 | CN1CCN(Cc2cc(NC(=O)c3ccc4c(c3)CN(c3ccccc3)CC4)cc(C(F)(F)F)c2)CC1 | 0 | 0 | 0 | 0 | – | – | – | – | 1 | –
13 | CN(c1ccccc1CNc1nc(Nc2ccc3c(c2)CC(=O)N3)ncc1C(F)(F)F)S(C)(=O)=O | – | 1 | 0 | 0 | 1 | – | 1 | – | 0 | –
14 | Cl.O=C(O)c1cc(-c2ccc(C3CCNCC3)cc2)c2ccc(-c3ccc(C(F)(F)F)cc3)cc2c1 | – | 1 | 1 | 1 | 0 | 0 | 0 | 0 | – | 0
15 | O=c1[nH]c2ccccc2n1C1CCN(Cc2ccc(-c3[nH]c4cc5ncnc5cc4nc3-c3ccccc3)cc2)CC1 | – | 1 | 0 | 0 | – | – | – | – | 0 | –
16 | CCc1ccc(OCc2ccccc2C(=O)Nc2ccc3nc(C)cc(N)c3c2)cc1.Cl | 0 | 0 | 0 | 0 | 0 | – | – | – | – | –
17 | CNC(=O)Nc1ccc(-c2nc(N3CC4CCC(C3)O4)c3cnn(C4CCC5(CC4)OCCO5)c3n2)cc1 | 0 | 0 | 0 | 0 | 1 | – | – | – | 0 | –
18 | CNC(=O)Nc1ccc2c(c1)[C@@]1(CC2)OC(=O)N(CC(=O)N(Cc2ccc(F)cc2)[C@@H](C)C(F)(F)F)C1=O [A-486] | 0 | 0 | 0 | 0 | – | 1 | 1 | – | 0 | –
19 | CNCc1ccccc1-c1csc([C@@H](C)Nc2nc(C)nc3cc(OC)c(OC)cc23)c1 [BAY-293] | 0 | 0 | 0 | 0 | – | – | – | – | – | –

Row | Structure (SMILES) | Growth Rate [1] | Growth Rate [2] | Growth Rate [3] | Growth Rate [4] | Growth Rate [5] | Growth Rate [6] | Growth Rate [7] | Growth Rate [8] | Growth Rate [9] | Growth Rate [10]
20 | Cc1c[nH]c2nccc(Oc3c(F)cc(Nc4cc(Cl)nc(N)n4)cc3F)c12 [BAY-549] | – | 0 | 0 | 0 | 0 | 1 | – | – | – | –
21 | Cc1cc(C)c(-n2ccn3nc(-c4cccnc4)cc23)cc1NC(=O)c1cc(C#N)cc(S(F)(F)(F)(F)F)c1 [BAY-826] | 1 | 1 | 1 | 1 | 0 | – | – | – | – | –
22 | COc1ccc(-c2ccc3ncc4c(c3c2)n(-c2ccc(N3CCNCC3)c(C(F)(F)F)c2)c(=O)n4C)cn1.O=C(O)/C=C\C(=O)O [BGT-226] | 0 | 0 | 0 | 0 | 0 | – | – | – | – | –
23 | C=CC(=O)Nc1ccc2[nH]c(=O)n(C3CCN(Cc4ccc(-c5nc6cc[nH]c(=O)c6cc5-c5ccccc5)cc4)CC3)c2c1 [Borussertib] | – | 1 | 1 | 1 | 0 | – | 0 | 0 | – | 0
24 | COc1ccccc1CN[C@H]1C2CCN(CC2)[C@H]1C(c1ccccc1)c1ccccc1 [CP-96345] | – | 1 | 1 | 1 | 0 | 0 | 0 | 0 | – | 0
25 | CNC(=O)c1ccc(Nc2ncc(C(F)(F)F)c(NCc3nccnc3N(C)S(C)(=O)=O)n2)cc1 [DEFACTINIB] | – | 0 | 0 | 0 | 0 | 1 | – | 1 | 1 | –
26 | CN1CCN(Cc2ccc(Nc3ncc(Cl)c(Nc4ccccc4S(=O)(=O)N(C)C)n3)cc2)CC1 [DUBERMATINIB] | – | 1 | 0 | 0 | 0 | 0 | – | – | – | –
27 | C#Cc1cccc(Nc2ncnc3cc(OCCOC)c(OCCOC)cc23)c1 [ERLOTINIB] | 0 | 0 | 0 | 0 | 0 | 1 | – | – | – | –
28 | C[C@]12CC[C@@H]3c4ccc(O)cc4CC[C@H]3[C@@H]1CC[C@@H]2O [ESTRADIOL] | 0 | 0 | 0 | 0 | 0 | – | – | – | – | –
29 | CC(C)c1noc(N2CCC(COc3ccc(-c4ccc(S(C)(=O)=O)cc4)nc3)CC2)n1 [GSK-1292263] | 0 | 0 | 0 | 0 | 0 | – | – | – | – | –
30 | COc1cc2ncn(-c3cc(OCc4ccccc4C(F)(F)F)c(C(N)=O)s3)c2cc1OC [GW843682X] | 1 | 0 | 0 | 0 | 0 | – | – | – | – | –
31 | Cc1ccc2c(c1)c1c(n2CCc2ccc(C)nc2)CCN(C)C1 [LATREPIRDINE] | 1 | 0 | 0 | 0 | 0 | – | – | 0 | – | –
32 | C[C@]1(O)C[C@@H](c2nc(-c3ccc4ccc(-c5ccccc5)nc4c3)c3c(N)nccn32)C1 [LINSITINIB] | 1 | 1 | – | 1 | – | – | 1 | – | 0 | –
33 | CCc1nn(CCCN2CCN(c3cccc(Cl)c3)CC2)c(=O)n1CCOc1ccccc1.Cl [NEFAZODONE HYDROCHLORIDE] | 0 | 0 | 0 | 0 | 0 | – | – | – | – | –
34 | COC(=O)C1=C(C)NC(C)=C(C(=O)OCCCN2CCC(c3ccccc3)(c3ccccc3)CC2)[C@H]1c1cccc([N+](=O)[O-])c1 [NIGULDIPINE] | 0 | 0 | 0 | 0 | 0 | – | 1 | – | – | 1
35 | CC(C)CC(=O)Nc1[nH]nc2c1CN(C(=O)C1CCN(C)CC1)C2(C)C [PHA-793887] | 0 | 0 | 0 | 0 | 0 | – | – | – | – | –
36 | CCCSc1nc(N[C@@H]2C[C@H]2c2ccc(F)c(F)c2)c2nnn([C@@H]3C[C@H](OCCO)[C@@H](O)[C@H]3O)c2n1 [TICAGRELOR] | 0 | 0 | 0 | 0 | 0 | – | – | – | – | –
37 | CC(C)(C)NC[C@H](O)COc1nsnc1N1CCOCC1 [TIMOLOL] | 1 | 1 | 1 | 1 | 0 | 0 | 0 | 0 | 1 | 0
